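Tested at 5 concentrations; 48 h exposure; 96-well plates; endpoints linearly interpolated, else capped at highest concentration. GI50 marks 50% less growth. TGI: concentration producing complete growth inhibition.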
Key:
Experiment in all cases: growth of human tumour cells (NCI), 48 h
[1] = test system: HCC-2998 colon
[2] = test system: MALME-3M melanoma
[3] = test system: OVCAR-3 ovarian
[4] = test system: SW-620 colon
[5] = test system: TK-10 renal
[6] = test system: U251 CNS
[7] = test system: A498 renal
[8] = test system: HCT-116 colon
[9] = test system: SF-268 CNS
[10] = test system: DU-145 prostate

Row | Compound | TGI [1] | TGI [2] | TGI [3] | TGI [4] | TGI [5] | TGI [6] | TGI [7] | TGI [8] | TGI [9] | GI50 [7] | GI50 [10] | TGI [10] | GI50 [1] | GI50 [2] | GI50 [3] | GI50 [9] | GI50 [4] | GI50 [5] | GI50 [6]
1 | O=C1C(=O)C(Br)(Br)C(Br)=C1Br | 62 µM | 35.4 µM | 29.1 µM | 31.9 µM | 39.9 µM | 79.8 µM |  |  |  |  |  |  |  |  |  |  |  |  | 
2 | CCN(CC)C(=O)COc1ccc(Br)cc1Br | > 100 µM | > 100 µM | > 100 µM | > 100 µM | > 100 µM | > 100 µM | > 100 µM | > 100 µM | > 100 µM |  |  |  |  |  |  |  |  |  | 
3 | O=C(COc1ccccc1)NS(=O)(=O)c1ccccc1 | > 100 µM | > 100 µM | > 100 µM | > 100 µM | > 100 µM | > 100 µM | > 100 µM | > 100 µM | > 100 µM |  |  |  |  |  |  |  |  |  | 
4 | CCOC(=O)c1sc(Nc2ccc(Cl)cc2)nc1C | 3.34 µM | 3.59 µM | 3.92 µM | 7.54 µM | 5.08 µM | 4.3 µM | 5.44 µM |  | 3.7 µM | 1.79 µM | 2.47 µM | 9.04 µM | 1.75 µM | 1.61 µM | 1.69 µM | 1.72 µM | 2.6 µM | 2.42 µM | 1.96 µM
5 | O=c1cnn2c(n1)sc1ccc3ccccc3c12 | > 100 µM | > 100 µM | > 100 µM | > 100 µM | > 100 µM | > 100 µM |  | > 100 µM | > 100 µM |  |  |  |  |  |  |  |  |  | 
6 | Cc1ccccc1C(C#N)C(=O)C(=O)Nc1cccc(Cl)c1 (stereo unspecified) | > 100 µM | > 100 µM | > 100 µM | 31.6 µM | > 100 µM | > 100 µM | > 100 µM | > 100 µM | > 100 µM |  |  |  |  |  |  |  |  |  | 
7 | Nc1c(-c2ccc(Cl)cc2Cl)[n+]([O-])c2ccccc2[n+]1[O-] | > 100 µM | > 100 µM | > 100 µM | > 100 µM | > 100 µM | > 100 µM | > 100 µM |  | > 100 µM |  |  |  |  |  |  |  |  |  | 
8 | O=C(Nc1nc2ncn(CC(COc3ccccc3)OC(=O)c3ccccc3)c2c(=O)[nH]1)c1ccccc1 (stereo unspecified) |  | > 100 µM | > 100 µM | > 100 µM |  | > 100 µM | > 100 µM | > 100 µM |  |  |  |  |  |  |  |  |  |  | 
9 | CC1OC(OCC2COC(O)(Oc3c(-c4ccc(O)c(O)c4)oc4cc(O)cc(O)c4c3=O)C(O)C2O)C(O)C(O)C1O (stereo unspecified) | > 100 µM | > 100 µM | > 100 µM | > 100 µM | > 100 µM | > 100 µM | > 100 µM | > 100 µM | > 100 µM |  |  |  |  |  |  |  |  |  | 
10 | CC1=C(C(=O)Nc2ccc(Cl)c(Cl)c2)C(c2ccco2)C(C(=O)Nc2ccc(Cl)c(Cl)c2)=C(C)N1 | 23.9 µM | 29.5 µM | 20.2 µM | 28.3 µM | 18.9 µM | 23.9 µM | 26.6 µM | 21.5 µM | 23.9 µM |  |  |  |  |  |  |  |  |  | 
11 | CCOC(=O)c1cn(Cc2ccccc2)c(=O)n1Cc1ccccc1 | > 100 µM | > 100 µM | > 100 µM | > 100 µM | > 100 µM | > 100 µM | > 100 µM | > 100 µM | > 100 µM |  |  |  |  |  |  |  |  |  | 
12 | O=[N+]([O-])c1nccn1COCCF |  | > 100 µM | > 100 µM | > 100 µM | > 100 µM | > 100 µM |  | > 100 µM | > 100 µM |  |  |  |  |  |  |  |  |  | 
13 | COc1ccc(/C=C2\CCC(C)(CN(C)C)C2=O)cc1 (stereo unspecified) | > 100 µM | > 100 µM | > 100 µM | > 100 µM | > 100 µM | > 100 µM | > 100 µM | > 100 µM | > 100 µM |  |  |  |  |  |  |  |  |  | 
14 | Cc1ccc(C)c(NC(=O)CC/C(=N\NC(=O)C(N)=O)C(C)C(=O)c2ccc(O)cc2)c1 (stereo unspecified) | > 100 µM | > 100 µM | > 100 µM | > 100 µM |  | > 100 µM |  | > 100 µM | > 100 µM |  |  |  |  |  |  |  |  |  | 
15 | CC(C)(C)C(=O)C1CC(=O)c2ccccc2C1=O (stereo unspecified) | > 100 µM | 31.4 µM | 71.4 µM | > 100 µM | > 100 µM | 99.7 µM | 91.3 µM | 46.2 µM | 69.7 µM |  |  |  |  |  |  |  |  |  | 
16 | NC(=S)N/N=C1/C(=O)N(c2ccc(Cl)cc2Cl)C(=O)C(=O)C1c1nc2ccccc2s1 (stereo unspecified) | > 100 µM | > 100 µM | > 100 µM | > 100 µM | > 100 µM | > 100 µM |  | > 100 µM | > 100 µM |  |  |  |  |  |  |  |  |  | 
17 | O=C1CCC2(CC1)SCCCS2 | > 100 µM | > 100 µM | > 100 µM | > 100 µM | > 100 µM | > 100 µM | > 100 µM |  | > 100 µM |  |  |  |  |  |  |  |  |  | 
18 | Cc1cc(O)cc2c1O[C@@]1(C)CCC3[C@@]4(C)CC[C@H](O)C(C)(C)C4CC[C@@]3(C)[C@H]1C2 (stereo partly specified) |  | 24.1 µM | 19.8 µM | 23.5 µM | 29 µM | 11.5 µM | 36.3 µM | 16.1 µM |  |  |  |  |  |  |  |  |  |  | 
19 | Cc1cc(Cl)cc2c1NC(=O)C2(O)C(C)C(=O)c1ccc(Cl)cc1 (stereo unspecified) | > 100 µM | > 100 µM | > 100 µM | > 100 µM | > 100 µM | > 100 µM | > 91.6 µM | > 100 µM | > 100 µM |  |  |  |  |  |  |  |  |  | 
20 | CCOC(=O)/C(=C/c1ccc(C#N)cc1)N(CC)CC | > 100 µM | > 100 µM |  | > 100 µM | > 100 µM | > 100 µM | > 100 µM | > 100 µM | > 100 µM |  |  |  |  |  |  |  |  |  | 
21 | O=c1c2ccccc2c2nc3ccccc3nc2n1C1CCCCC1 | > 100 µM | > 100 µM | > 100 µM | > 100 µM | > 100 µM | > 100 µM |  | > 100 µM | > 100 µM |  |  |  |  |  |  |  |  |  | 
22 | NCc1nnn(Cc2ccccc2)c1N |  | > 100 µM | > 100 µM | > 100 µM | > 100 µM | > 100 µM | > 100 µM | > 100 µM | > 100 µM |  |  | > 100 µM |  |  |  |  |  |  | 
23 | COc1ccc(C(c2c(O)c3ccccc3n(C)c2=O)c2c(O)c3ccccc3n(C)c2=O)cc1 | > 100 µM | > 100 µM | > 100 µM | > 100 µM | > 100 µM | 44.2 µM |  | > 100 µM | > 100 µM |  |  |  |  |  |  |  |  |  | 
24 | COc1ccc2nc3ccccc3c(NCCCCCCN(C)CCCl)c2c1 | 1.98 µM | 2.06 µM | 3.12 µM | 1.52 µM | 4.91 µM | 1.75 µM | 2.53 µM | 1.22 µM | 2.48 µM |  |  |  |  |  |  |  |  |  | 

From PubChem BioAssay (NCI)
